# In patent publication US20250098679A1, “HERBICIDAL PYRIDONE DERIVATIVES” (SYNGENTA CROP PROTECTION AG, priority 2021, published 2025):
# Tests used:
# Type in all cases: in vivo
# [1] = system: Amaranthus retoflexus (AMARE); assay: Post-emergence Test, Amaranthus retoflexus (AMARE); parameters: key to percentage damage caused to the plant, AMARE (five-point scale): 5=81-100%, 4=61-80%, 3=41-60%, 2=21-40%, 1=0-20% damage; conditions: evaluated after 13 days
# In short: (§1)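 Application was a spray of acetone/water (50:50) with 0.5% Tween 20 onto pots of test species sown in standard soil. Unless otherwise stated, the rate was 1000 g/ha. After 13 days under glasshouse conditions (24/16 °C, 65% humidity), injury was scored from 1 (0-20%) to 5 (81-100%).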
# [2] = system: Amaranthus palmeri (AMAPA); assay: Post-emergence Test, Amaranthus palmeri (AMAPA); parameters: key: 5=81-100%, 4=61-80%, 3=41-60%, 2=21-40%, 1=0-20% damage; conditions: evaluated after 13 days
# In short: as §1
# Setaria faberi (SETFA) = assay: Post-emergence Test, Setaria faberi (SETFA); parameters: key to percentage damage caused to the plant, SETFA (five-point scale): 5=81-100%, 4=61-80%, 3=41-60%, 2=21-40%, 1=0-20% damage; conditions: evaluated after 13 days
# In short: as §1
# [3] = system: Ipomoea hederacea (IPOHE); assay: Post-emergence Test, Ipomoea hederacea (IPOHE); parameters: key to percentage damage caused to the plant, IPOHE (five-point scale): 5=81-100%, 4=61-80%, 3=41-60%, 2=21-40%, 1=0-20% damage; conditions: evaluated after 13 days
# In short: as §1
# [4] = system: Echinochloa crus-galli (ECHCG); assay: Post-emergence Test, Echinochloa crus-galli (ECHCG); parameters: key to percentage damage caused to the plant, ECHCG (five-point scale): 5=81-100%, 4=61-80%, 3=41-60%, 2=21-40%, 1=0-20% damage; conditions: evaluated after 13 days; for Post-emergence Test ECHCG, percentage damage caused to the plant (five-point scale): 250 g/Ha (*)
# In short: as §1
# Zea mays (ZEAMX) = assay: Post-emergence Test, Zea mays (ZEAMX); parameters: key to percentage damage caused to the plant, ZEAMX (five-point scale): 5=81-100%, 4=61-80%, 3=41-60%, 2=21-40%, 1=0-20% damage; conditions: evaluated after 13 days
# In short: as §1
SMILES,"percentage damage caused to the plant, AMARE (five-point scale) ([1]; 1000 g/ha)","percentage damage caused to the plant, AMAPA (five-point scale) ([2]; 1000 g/ha)","percentage damage caused to the plant, SETFA (five-point scale) (Setaria faberi (SETFA); 1000 g/ha)","percentage damage caused to the plant, IPOHE (five-point scale) ([3]; 1000 g/ha)","percentage damage caused to the plant, ECHCG (five-point scale) ([4]; 1000 g/ha)","percentage damage caused to the plant, ZEAMX (five-point scale) (Zea mays (ZEAMX); 1000 g/ha)","percentage damage caused to the plant, AMARE (five-point scale) ([1]; 250 g/Ha)","percentage damage caused to the plant, AMAPA (five-point scale) ([2]; 250 g/Ha)","percentage damage caused to the plant, IPOHE (five-point scale) ([3]; 250 g/Ha)","percentage damage caused to the plant, ECHCG (five-point scale) ([4]; 250 g/Ha)","percentage damage caused to the plant, ZEAMX (five-point scale) (Zea mays (ZEAMX); 250 g/Ha)",other results
"CCOC(=O)c1nccn1Cc1cc(=O)c(C(=O)O)c(-c2ccc(Cl)c(Cl)c2)n1CC [Compound 110, 2-(3,4-dichlorophenyl)-6-[(2-ethoxycarbonylimidazol-1-yl)methyl]-1-ethyl-4-oxo-pyridine-3-carboxylic acid]",0,0,1 (1=0-20%),1 (1=0-20%),1 (1=0-20%),0,,,,,,
"CCn1c(Cn2nc(C(F)F)c3c2CCOC3)cc(=O)c(C(=O)O)c1-c1ccc(Cl)c(Cl)c1 [Compound 87, 2-(3,4-dichlorophenyl)-6-[[3-(difluoromethyl)-6,7-dihydro-4H-pyrano[4,3-c]pyrazol-1-yl]methyl]-1-ethyl-4-oxo-pyridine-3-carboxylic acid]",1 (1=0-20%),2 (2=21-40%),1 (1=0-20%),1 (1=0-20%),1 (1=0-20%),1 (1=0-20%),0,0,0,1 (1=0-20%),1 (1=0-20%),"percentage damage caused to the plant, SETFA (five-point scale) (Setaria faberi (SETFA); 250 g/Ha): 0"
"CCOC(=O)c1c(-c2ccc(Cl)c(Cl)c2)n(CC)c(Cn2nccn2)cc1=O [Compound 58, ethyl 2-(3,4-dichlorophenyl)-1-ethyl-4-oxo-6-(triazol-2-ylmethyl)pyridine-3-carboxylate]",1 (1=0-20%),0,1 (1=0-20%),0,1 (1=0-20%),0,,,,,,
"CCn1c(Cn2nc(C(C)(C)C)cc2C(F)(F)F)cc(=O)c(C(=O)O)c1-c1ccc(Cl)c(Cl)c1 [Compound 181, 6-[[3-tert-butyl-5-(trifluoromethyl)pyrazol-1-yl]methyl]-2-(3,4-dichlorophenyl)-1-ethyl-4-oxo-pyridine-3-carboxylic acid]",1 (1=0-20%),1 (1=0-20%),0,1 (1=0-20%),,0,0,0,0,1 (1=0-20%),0,
"CCC(=O)Nc1ccn(Cc2cc(=O)c(C(=O)O)c(-c3ccc(Cl)c(Cl)c3)n2CC)n1 [Compound 192, 2-(3,4-dichlorophenyl)-1-ethyl-4-oxo-6-[[3-(propanoylamino)pyrazol-1-yl]methyl]pyridine-3-carboxylic acid]",1 (1=0-20%),1 (1=0-20%),0,0,0,0,,,,,,
"CCn1c(Cn2ccc(-c3ccc(Cl)cc3)n2)cc(=O)c(C(=O)O)c1-c1ccc(Cl)c(Cl)c1 [Compound 199, 6-[[3-(4-chlorophenyl)pyrazol-1-yl]methyl]-2-(3,4-dichlorophenyl)-1-ethyl-4-oxo-pyridine-3-carboxylic acid]",,,,,,,,,,,,"Post-emergence Test AMARE, percentage damage caused to the plant (five-point scale) ([1]; 250 g/Ha (*)): 0; Post-emergence Test AMARE, percentage damage caused to the plant (five-point scale) ([1]; 1000 g/ha): 0; Post-emergence Test AMAPA, percentage damage caused to the plant (five-point scale) ([2]; 250 g/Ha (*)): 0; Post-emergence Test AMAPA, percentage damage caused to the plant (five-point scale) ([2]; 1000 g/ha): 0; Post-emergence Test SETFA, percentage damage caused to the plant (five-point scale) (Setaria faberi (SETFA); 1000 g/ha): 0; Post-emergence Test IPOHE, percentage damage caused to the plant (five-point scale) ([3]; 250 g/Ha (*)): 0; Post-emergence Test IPOHE, percentage damage caused to the plant (five-point scale) ([3]; 1000 g/ha): 2 (2=21-40%); Post-emergence Test ECHCG, percentage damage caused to the plant (five-point scale) [4]: 1 (1=0-20%); Post-emergence Test ZEAMX, percentage damage caused to the plant (five-point scale) (Zea mays (ZEAMX); 250 g/Ha (*)): 0; Post-emergence Test ZEAMX, percentage damage caused to the plant (five-point scale) (Zea mays (ZEAMX); 1000 g/ha): 0"
"CCn1c(Cn2ncc3ccccc32)cc(=O)c(C(=O)O)c1-c1ccc(Cl)c(Cl)c1 [Compound 105, 2-(3,4-dichlorophenyl)-1-ethyl-6-[indazol-1-ylmethyl)-4-oxo-pyridine-3-carboxylic acid]",2 (2=21-40%),2 (2=21-40%),2 (2=21-40%),4 (4=61-80%),3 (3=41-60%),1 (1=0-20%),0,0,0,3 (3=41-60%),0,"percentage damage caused to the plant, SETFA (five-point scale) (Setaria faberi (SETFA); 250 g/Ha): 0"
CCn1c(Cn2ccc(-c3ccco3)n2)cc(=O)c(C(=O)O)c1-c1ccc(Cl)c(Cl)c1 [Compound 200],,,,,,,,,,,,"Post-emergence Test AMARE, percentage damage caused to the plant (five-point scale) ([1]; 250 g/Ha (*)): 0; Post-emergence Test AMARE, percentage damage caused to the plant (five-point scale) ([1]; 1000 g/ha): 0; Post-emergence Test AMAPA, percentage damage caused to the plant (five-point scale) ([2]; 250 g/Ha (*)): 0; Post-emergence Test AMAPA, percentage damage caused to the plant (five-point scale) ([2]; 1000 g/ha): 0; Post-emergence Test SETFA, percentage damage caused to the plant (five-point scale) (Setaria faberi (SETFA); 1000 g/ha): 1 (1=0-20%); Post-emergence Test IPOHE, percentage damage caused to the plant (five-point scale) ([3]; 250 g/Ha (*)): 0; Post-emergence Test IPOHE, percentage damage caused to the plant (five-point scale) ([3]; 1000 g/ha): 1 (1=0-20%); Post-emergence Test ECHCG, percentage damage caused to the plant (five-point scale) [4]: 1 (1=0-20%); Post-emergence Test ZEAMX, percentage damage caused to the plant (five-point scale) (Zea mays (ZEAMX); 250 g/Ha (*)): 1 (1=0-20%); Post-emergence Test ZEAMX, percentage damage caused to the plant (five-point scale) (Zea mays (ZEAMX); 1000 g/ha): 1 (1=0-20%)"
